Test: mn = molality of the nth substance listed, in mol/kg
Settings: 101 kPa, Liquid; for speed of sound: Sing-around technique in a fixed-path interferometer; for mass density: Vibrating tube method

CCCCn1cc[n+](C)c1.[Br-] [1-butyl-3-methylimidazolium bromide] + O
Settings	mass density, 298.15 K [kg/m3]	mass density, 303.15 K [kg/m3]	mass density, 308.15 K [kg/m3]	speed of sound, 298.15 K [m/s]	speed of sound, 303.15 K [m/s]	speed of sound, 308.15 K [m/s]
m1 = 0.0183	997.948	996.538	994.913	–	1511	1521.5
m1 = 0.0274	998.397	996.983	995.351	–	1511.8	1522.2
m1 = 0.0367	998.851	997.432	995.796	–	1512.6	1523
m1 = 0.0459	999.303	997.878	996.238	–	1513.4	1523.7
m1 = 0.0692	1000.44	999.002	997.347	–	1515.5	1525.6
m1 = 0.0932	1001.6	1000.15	998.48	–	1517.5	1527.4
m1 = 0.1164	1002.71	1001.24	999.565	–	1519.5	1529.3
m1 = 0.141	1003.88	1002.4	1000.71	1510.5	1521.7	1531.2
m1 = 0.1652	1005.02	1003.53	1001.83	1512.7	1523.7	1533.1
m1 = 0.1863	1006.01	1004.51	1002.79	1514.7	1525.5	1534.7
m1 = 0.2114	1007.19	1005.67	1003.94	1517	1527.6	1536.6
m1 = 0.2376	1008.4	1006.87	1005.13	1519.3	1529.7	1538.5
m1 = 0.2632	1009.58	1008.03	1006.28	1521.7	1531.8	1540.4
m1 = 0.2831	1010.49	1008.93	1007.17	1523.4	1533.4	1541.8

Source: the NIST ThermoML archive (doi:10.1016/j.jct.2009.10.007)
